Assay results: paper PMC8808171, “Nonselective TRPC channel inhibition and suppression of aminoglycoside-induced premature termination codon readthrough by the small molecule AC1903” (The Journal of Biological Chemistry, 2022)

Key:
standard kinase panel = tested on: standard kinase panel; parameters: method as in PMID 29217578; conditions: cited from earlier work
TRPC4 channels = tested on: TRPC4 channels; parameters: method as in PubChem AID 434942 – SID 865888; conditions: ref PubChem AID 434942 – SID 865888; cited from earlier work
TRPC6:C6 = target: T1, TRPC6:C6 (Homo sapiens, UniProt Q9Y210); assay: [Ca2+]i recordings (Fura-2), TRPC6:C6 in HEK 293 cells; type: cell-based
T1 construct: expressed in transfected cells; host or cells: WT HEK 293 (transient)
T1 sequence (Q9Y210 whole entry): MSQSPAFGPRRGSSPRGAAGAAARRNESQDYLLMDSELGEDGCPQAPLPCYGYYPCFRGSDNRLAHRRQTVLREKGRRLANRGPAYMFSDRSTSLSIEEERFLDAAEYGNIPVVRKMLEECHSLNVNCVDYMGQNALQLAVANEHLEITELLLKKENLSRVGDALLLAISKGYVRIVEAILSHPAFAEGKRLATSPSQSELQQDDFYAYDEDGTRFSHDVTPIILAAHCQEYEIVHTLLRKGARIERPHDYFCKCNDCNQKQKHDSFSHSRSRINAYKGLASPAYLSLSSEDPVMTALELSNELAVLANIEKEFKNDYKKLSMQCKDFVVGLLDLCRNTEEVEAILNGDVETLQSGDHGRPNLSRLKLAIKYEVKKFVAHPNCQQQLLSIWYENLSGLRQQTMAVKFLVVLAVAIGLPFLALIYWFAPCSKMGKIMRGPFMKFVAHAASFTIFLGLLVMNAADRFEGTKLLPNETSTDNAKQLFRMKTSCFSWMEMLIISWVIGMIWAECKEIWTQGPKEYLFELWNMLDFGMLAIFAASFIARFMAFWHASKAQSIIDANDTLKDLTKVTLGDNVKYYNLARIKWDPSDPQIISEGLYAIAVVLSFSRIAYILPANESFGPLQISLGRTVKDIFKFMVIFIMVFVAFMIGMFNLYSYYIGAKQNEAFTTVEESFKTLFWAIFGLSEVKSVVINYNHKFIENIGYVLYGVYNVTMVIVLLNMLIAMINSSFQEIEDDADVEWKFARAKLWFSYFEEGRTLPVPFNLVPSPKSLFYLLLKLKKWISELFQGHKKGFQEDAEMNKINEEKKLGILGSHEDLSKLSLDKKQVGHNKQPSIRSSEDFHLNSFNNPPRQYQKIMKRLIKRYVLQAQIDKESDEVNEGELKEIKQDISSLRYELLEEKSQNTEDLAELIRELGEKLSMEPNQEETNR
Procedure: Based on the findings described above, we wondered whether AC1903—which is typically used as a TRPC5 inhibitor at concentrations of 30–100 μM in cellular assays ([29], [56])—might have limited selectivity for TRPC5 channels and whether its effect on intracellular G418 levels and PTC readthrough might be the consequence of inhibition of other or multiple targets. All well-characterized TRPC channel inhibitors reported to date modulate multiple TRP(C) channels ([34], [35], [36]). […] Because limited data for the selectivity of AC1903 are available in the public domain, we decided to profile AC1903 against a selection of calcium-permeable cation channels by intracellular calcium ([Ca^2+]i) recordings using well-characterized cell lines and TRP channel activators ([46], [57], [58]), and the Ca^2+ indicator Fura-2. In these assays, cells (HEK 293, HEK T-REx, or CHO) overexpressing the relevant ion channel protein and loaded with Fura-2 AM (a cell-permeable precursor of Fura-2) were preincubated with various concentrations of AC1903 or vehicle (DMSO) for 30 min. Then, changes in ratiometric fluorescence (from background) were recorded upon addition of the respective ion channel activator. […]

- IC50 (TRPC6:C6; HEK 293, activator OAG (100 μM)): 15 µM
- Hill slope (TRPC6:C6; activator OAG): -1.5
Structure (SMILES): c1ccc(Cn2c(NCc3ccco3)nc3ccccc32)cc1 [AC1903]
- off-target effects in a standard kinase panel (standard kinase panel): no off-target effects were found
- IC50 (TRPC4 channels): 0.6 µM
